System: 782815-120-R-J1-PDC complex spheroid viability
Assay: Anticancer human tumor 782815-120-R-J1-PDC patient-derived colon adenocarcinoma cell line growth inhibition [RAS]
Conditions: for IC50: curve of first compound; for viability, T/C: stronger effect = lower value; active = viability on the fitted dose curve at most 10% of control; inactive = the rest
In short: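 Multi-cell-type spheroids: tumor cells plus HUVEC endothelial cells and mesenchymal stem cells. RAS-pathway inhibitors were combined with targeted agents, each dosed in half-log steps down from clinical Cmax, or from 10 microM when Cmax was unknown.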

[1] = second compound 0.000949 µM, first compound 0.0316 µM
[2] = second compound 0.000949 µM, first compound 0.1 µM
[3] = second compound 0.000949 µM, first compound 0.316 µM
[4] = second compound 0.000949 µM, first compound 1 µM
[5] = second compound 0.003 µM, first compound 0.0316 µM
[6] = second compound 0.003 µM, first compound 0.1 µM
[7] = second compound 0.003 µM, first compound 0.316 µM
[8] = second compound 0.003 µM, first compound 1 µM
[9] = second compound 0.00949 µM, first compound 0.0316 µM
[10] = second compound 0.00949 µM, first compound 0.1 µM
[11] = second compound 0.00949 µM, first compound 0.316 µM
[12] = second compound 0.00949 µM, first compound 1 µM
[13] = second compound 0.03 µM, first compound 0.0316 µM
[14] = second compound 0.03 µM, first compound 0.1 µM
[15] = second compound 0.03 µM, first compound 0.316 µM
[16] = second compound 0.03 µM, first compound 1 µM
[17] = second compound 0.0949 µM, first compound 0.0316 µM
[18] = second compound 0.0949 µM, first compound 0.1 µM
[19] = second compound 0.0949 µM, first compound 0.316 µM
[20] = second compound 0.0949 µM, first compound 1 µM
[21] = second compound 0.3 µM, first compound 0.0316 µM
[22] = second compound 0.3 µM, first compound 0.1 µM
[23] = second compound 0.3 µM, first compound 0.316 µM
[24] = second compound 0.3 µM, first compound 1 µM
[25] = second compound 0.000949 µM, first compound 3.16 µM
[26] = second compound 0.000949 µM, first compound 10 µM
[27] = second compound 0.003 µM, first compound 3.16 µM
[28] = second compound 0.003 µM, first compound 10 µM
[29] = second compound 0.00949 µM, first compound 3.16 µM
[30] = second compound 0.00949 µM, first compound 10 µM
[31] = second compound 0.03 µM, first compound 3.16 µM
[32] = second compound 0.03 µM, first compound 10 µM
[33] = second compound 0.0949 µM, first compound 3.16 µM
[34] = second compound 0.0949 µM, first compound 10 µM
[35] = second compound 0.3 µM, first compound 3.16 µM
[36] = second compound 0.3 µM, first compound 10 µM
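Also: spheroids exposed to compounds for 7 days before reading.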
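For viability, T/C in this document: 100% = DMSO vehicle control viability.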

CCN1CCN(Cc2ccc(Nc3ncc(F)c(-c4cc(F)c5nc(C)n(C(C)C)c5c4)n3)nc2)CC1 + CCn1c(-c2cccnc2C(C)OC)c2c3cc(ccc31)N1CCOC(CC(NC(=O)C(C(C)C)N(C)C(=O)C3(F)CCN(C(=O)C#CC(C)(C)N(C)C)CC3)C(=O)N3CCCC(N3)C(=O)OCC(C)(C)C2)C1
> 1 µM: IC50 (second compound 0.000949 µM) | IC50 (second compound 0.003 µM) | IC50 (second compound 0.00949 µM) | IC50 (second compound 0.03 µM) | IC50 (second compound 0.0949 µM) | IC50 (second compound 0.3 µM)
inactive: viability, T/C (second compound 0.000949 µM, first compound 0.00316 µM) 104% | viability, T/C (second compound 0.000949 µM, first compound 0.01 µM) 99.3% | viability, T/C [1] 106% | viability, T/C [2] 92% | viability, T/C [3] 124% | viability, T/C [4] 125% | viability, T/C (second compound 0.003 µM, first compound 0.00316 µM) 95% | viability, T/C (second compound 0.003 µM, first compound 0.01 µM) 97% | viability, T/C [5] 95.7% | viability, T/C [6] 98% | viability, T/C [7] 118% | viability, T/C [8] 121% | viability, T/C (second compound 0.00949 µM, first compound 0.00316 µM) 96.3% | viability, T/C (second compound 0.00949 µM, first compound 0.01 µM) 99.6% | viability, T/C [9] 102% | viability, T/C [10] 103% | viability, T/C [11] 118% | viability, T/C [12] 127% | viability, T/C (second compound 0.03 µM, first compound 0.00316 µM) 99.8% | viability, T/C (second compound 0.03 µM, first compound 0.01 µM) 109% | viability, T/C [13] 101% | viability, T/C [14] 102% | viability, T/C [15] 117% | viability, T/C [16] 127% | viability, T/C (second compound 0.0949 µM, first compound 0.00316 µM) 92.3% | viability, T/C (second compound 0.0949 µM, first compound 0.01 µM) 95.5% | viability, T/C [17] 97% | viability, T/C [18] 102% | viability, T/C [19] 123% | viability, T/C [20] 134% | viability, T/C (second compound 0.3 µM, first compound 0.00316 µM) 92.8% | viability, T/C (second compound 0.3 µM, first compound 0.01 µM) 91.6% | viability, T/C [21] 104% | viability, T/C [22] 110% | viability, T/C [23] 122% | viability, T/C [24] 122%

Cc1nc(N2CCC3(CC2)COC(C)C3N)c(CO)nc1Sc1ccnc(N)c1Cl (stereo unspecified) + CCn1c(-c2cccnc2C(C)OC)c2c3cc(ccc31)N1CCOC(CC(NC(=O)C(C(C)C)N(C)C(=O)C3(F)CCN(C(=O)C#CC(C)(C)N(C)C)CC3)C(=O)N3CCCC(N3)C(=O)OCC(C)(C)C2)C1
> 10 µM: IC50 (second compound 0.000949 µM) | IC50 (second compound 0.003 µM) | IC50 (second compound 0.00949 µM) | IC50 (second compound 0.03 µM) | IC50 (second compound 0.0949 µM) | IC50 (second compound 0.3 µM)
inactive: viability, T/C [1] 108% | viability, T/C [2] 88% | viability, T/C [3] 99.2% | viability, T/C [4] 94.2% | viability, T/C [25] 98.6% | viability, T/C [26] 93.6% | viability, T/C [5] 93.1% | viability, T/C [6] 95.5% | viability, T/C [7] 104% | viability, T/C [8] 94.5% | viability, T/C [27] 96% | viability, T/C [28] 95.7% | viability, T/C [9] 95.2% | viability, T/C [10] 95.7% | viability, T/C [11] 91.4% | viability, T/C [12] 98.9% | viability, T/C [29] 111% | viability, T/C [30] 94% | viability, T/C [13] 101% | viability, T/C [14] 92.6% | viability, T/C [15] 92.2% | viability, T/C [16] 98.6% | viability, T/C [31] 102% | viability, T/C [32] 87.7% | viability, T/C [17] 94.5% | viability, T/C [18] 99.6% | viability, T/C [19] 103% | viability, T/C [20] 95.7% | viability, T/C [33] 101% | viability, T/C [34] 90.1% | viability, T/C [21] 93.3% | viability, T/C [22] 90.1% | viability, T/C [23] 87.5% | viability, T/C [24] 96% | viability, T/C [35] 101% | viability, T/C [36] 91%

NC1c2ccccc2OC12CCN(c1cnc3c(N4CCCc5ncccc54)n[nH]c3n1)CC2 (stereo unspecified) + CCn1c(-c2cccnc2C(C)OC)c2c3cc(ccc31)N1CCOC(CC(NC(=O)C(C(C)C)N(C)C(=O)C3(F)CCN(C(=O)C#CC(C)(C)N(C)C)CC3)C(=O)N3CCCC(N3)C(=O)OCC(C)(C)C2)C1
inactive: viability, T/C [1] 97.9% | viability, T/C [2] 105% | viability, T/C [3] 108% | viability, T/C [4] 105% | viability, T/C [25] 93.9% | viability, T/C [26] 77.7% | viability, T/C [5] 91.5% | viability, T/C [6] 104% | viability, T/C [7] 101% | viability, T/C [8] 89.4% | viability, T/C [27] 102% | viability, T/C [28] 85.8% | viability, T/C [9] 96.2% | viability, T/C [10] 109% | viability, T/C [11] 91.5% | viability, T/C [12] 93.2% | viability, T/C [29] 100% | viability, T/C [30] 76.7% | viability, T/C [13] 88.5% | viability, T/C [14] 106% | viability, T/C [15] 95.1% | viability, T/C [16] 98.5% | viability, T/C [31] 91.2% | viability, T/C [32] 80.3% | viability, T/C [17] 89.1% | viability, T/C [18] 93% | viability, T/C [19] 92.6% | viability, T/C [20] 99.7% | viability, T/C [33] 103% | viability, T/C [34] 76.5% | viability, T/C [21] 90.8% | viability, T/C [22] 91.6% | viability, T/C [23] 85.8% | viability, T/C [24] 92.5% | viability, T/C [35] 88.6% | viability, T/C [36] 73.4%
> 10 µM: IC50 (second compound 0.000949 µM) | IC50 (second compound 0.003 µM) | IC50 (second compound 0.00949 µM) | IC50 (second compound 0.03 µM) | IC50 (second compound 0.0949 µM) | IC50 (second compound 0.3 µM)

— PubChem BioAssay AID2060887 (Molecular Pharmacology Branch, DTP, NCI, 2025)
